Test system: A. fumigatus ATCC 14110
Experiment: Checkerboard MIC assay, FICI
Type: cell-based, Aspergillus fumigatus
Conditions: combination with Compound 1
Text: The following assay was used to determine the minimum inhibitory concentration (MIC) and fractional inhibitory concentration index (FICI) for combinations of an antifungal agent and a glycopeptide antibacterial agent. This assay and methods for calculating FICI are well known in the art. See, for example, Eliopoulos, E. G. and R. Moellering, Jr. “Antimicrobial Combinations” in Antibiotics in Laboratory Medicine, edited by V. Lorian, 4th Ed., Williams & Wilkins, Baltimore, MD, pp. 330-396 (1996); […] et al., Antimicrobial Agents and Chemotherapy 47(4):1416-1418 (2003); or […] et al., Antimicrobial Agents and Chemotherapy 46(10):3323-3326 (2002). […] The MIC of the glycopeptide antibacterial agent determined from this experiment was used in FIC calculations. […]

Compound	FICI
C[C@@H]1[C@H](O)[C@@H](C)/C=C/C=C/C=C/C=C/C=C/C=C/C=C/[C@H](O[C@@H]2O[C@H](C)[C@@H](O)[C@H](N)[C@@H]2O)C[C@@H]2O[C@](O)(C[C@@H](O)C[C@@H](O)[C@H](O)CC[C@@H](O)C[C@@H](O)CC(=O)O[C@H]1C)C[C@H](O)[C@H]2C(=O)O [Amphotericin B]	0.31
C[C@@H]1[C@H](O)[C@@H](C)/C=C/C=C/CC/C=C/C=C/C=C/C=C/C(O[C@H]2O[C@H](C)[C@@H](O)[C@H](N)[C@@H]2O)CC2O[C@](O)(CC(O)C(O)CCC(O)CC(O)CC(O)CC(=O)O[C@H]1C)CC(O)C2C(=O)O (some centres unmarked) [Nystatin]	1.25
